From patent US20050124562A1, “Bis-quinazoline compounds for the treatment of bacterial infections” (priority 2003, published 2005)
In brackets after ≈: the same amount, converted by molar mass.

System: S. aureus, E. faecalis, S. pyogenes and S. pneumoniae
Experiment: Broth microdilution MIC (NCCLS), gram-positive strains
Assay type: cell-based
Conditions: not given
Protocol: Representative bis-quinazolines were tested for antibacterial activity using the […] microdilution method to determine their minimum inhibitory concentrations (MICs). All compounds were tested using standard methods in accordance with NCCLS guidelines (National Committee for Clinical Laboratory Standards. 2003. Methods for dilution antimicrobial susceptibility testing for bacteria that grow aerobically. Approved Standard M-7 A-6, NCCLS, Wayne, Pa.). The bacterial strains used in the susceptibility tests were obtained from the American Type Culture Collection (ATCC) and included resistant phenotypes such as oxacillin-resistant S. aureus (ORSA) and vancomycin-resistant enterococci (VRE). The minimum bactericidal concentrations (MBCs) were determined for selected organisms. The effect of protein binding on the antibacterial activity of representative bis-quinazolines were determined by conducting MIC tests in the presence of human serum.

| SMILES | MIC |
| --- | --- |
| COc1ccc2nc(Nc3nc(O)c4cccc(OC)c4n3)nc(C)c2c1 [Example 10, 8-Methoxy-2-(6-methoxy-4-methyl-quinazolin-2-ylamino)-quinazolin-4-ol] | 0.06 to 16 µg/mL (≈ 0.165 to 44 µM) |
| COc1ccc2nc(Nc3nc(O)c4cccc(C)c4n3)nc(C)c2c1 [Example 65, 2-(6-Methoxy-4-methyl-quinazolin-2-ylamino)-8-methyl-quinazolin-4-ol] | 0.06 to 16 µg/mL (≈ 0.173 to 46.1 µM) |
| COc1cc(OC)c2nc(Nc3nc(O)c4cccc(OC)c4n3)nc(C)c2c1 [Example 11, 2-(6,8-Dimethoxy-4-methyl-quinazolin-2-ylamino)-8-methoxy-quinazolin-4-ol] | 0.06 to 16 µg/mL (≈ 0.153 to 40.7 µM) |
| COc1ccc2nc(Nc3nc(O)c4cc(OC)c(OC)cc4n3)nc(C)c2c1 [Example 62, 6,7-Dimethoxy-2-(6-methoxy-4-methyl-quinazolin-2-ylamino)-quinazolin-4-ol] | 0.06 to 16 µg/mL (≈ 0.153 to 40.7 µM) |

Same assay, conditions: range against some strains of S. aureus, E. faecalis, S. pyogenes and S. pneumoniae; read-out: MIC

| SMILES | MIC |
| --- | --- |
| COc1cc2c(C)nc(Nc3nc(O)c4cccc(OC)c4n3)nc2cc1O.O=C(O)C(F)(F)F [Example 103, 2-(4-Hydroxy-8-methoxy-quinazolin-2-ylamino)-6-methoxy-4-methyl-quinazolin-7-ol trifluoroacetate salt] | 0.06 to 16 µg/mL |
| COc1ccc2c(C)nc(Nc3nc(O)c4cccc(OC)c4n3)nc2c1OC.O=C(O)C(F)(F)F [Example 78, 2-(7,8-Dimethoxy-4-methyl-quinazolin-2-ylamino)-8-methoxy-quinazolin-4-ol trifluoroacetate salt] | 0.06 to 16 µg/mL |
| COc1cc2nc(Nc3nc(O)c4cc(OCCN5CC(C)OC(C)C5)ccc4n3)nc(C)c2cc1OC.O=C(O)C(F)(F)F (centres unmarked) [Example 177, 2-(6,7-Dimethoxy-4-methyl-quinazolin-2-ylamino)-6-[2-(2,6-dimethyl-morpholin-4-yl)-ethoxy]-quinazolin-4-ol trifluoroacetate salt] | 0.06 to 16 µg/mL |
| COc1ccc2c(C)nc(Nc3nc(O)c4cc(C)cc(C)c4n3)nc2c1OC.O=C(O)C(F)(F)F [Example 73, 2-(7,8-Dimethoxy-4-methyl-quinazolin-2-ylamino)-6,8-dimethyl-quinazolin-4-ol trifluoroacetate salt] | 0.06 to 16 µg/mL |
| COc1cc(OC)c2nc(Nc3nc(O)c4cc(C)cc(C)c4n3)nc(C)c2c1.O=C(O)C(F)(F)F [Example 75, 2-(6,8-Dimethoxy-4-methyl-quinazolin-2-ylamino)-6,8-dimethyl-quinazolin-4-ol trifluoroacetate salt] | 0.06 to 16 µg/mL |
| COc1cc2nc(Nc3nc(O)c4cc(OCCN(C)Cc5cccnc5)ccc4n3)nc(C)c2cc1OC.O=C(O)C(F)(F)F [Example 182, 2-(6,7-Dimethoxy-4-methyl-quinazolin-2-ylamino)-6-[2-(methyl-pyridin-3-ylmethyl-amino)-ethoxy]-quinazolin-4-ol trifluoroacetate salt] | 0.06 to 16 µg/mL |
| COc1cc2nc(Nc3nc(O)c4c(N(C)C)cccc4n3)nc(C)c2cc1OC.O=C(O)C(F)(F)F [Example 128, 2-(6,7-Dimethoxy-4-methyl-quinazolin-2-ylamino)-5-dimethylamino-quinazolin-4-ol trifluoroacetate salt] | 0.06 to 16 µg/mL |
| COc1ccc2nc(Nc3nc(O)c4c(OC)cccc4n3)nc(C)c2c1.O=C(O)C(F)(F)F [Example 37, 5-Methoxy-2-(6-methoxy-4-methyl-quinazolin-2-ylamino)-quinazolin-4-ol trifluoroacetate salt] | 0.06 to 16 µg/mL |
| COc1cc(OC)c2nc(Nc3nc(O)c4cc(N)cc(OC)c4n3)nc(C)c2c1.O=C(O)C(F)(F)F [Example 124, 6-Amino-2-(6,8-dimethoxy-4-methyl-quinazolin-2-ylamino)-8-methoxy-quinazolin-4-ol trifluoroacetate salt] | 0.06 to 16 µg/mL |
| COc1cccc2c(O)nc(Nc3nc(C)c4ccc(F)c(OC)c4n3)nc12.O=C(O)C(F)(F)F [Example 117, 2-(7-Fluoro-8-methoxy-4-methyl-quinazolin-2-ylamino)-8-methoxy-quinazolin-4-ol trifluoroacetate salt] | 0.06 to 16 µg/mL |
